The nature of the test: Compaction assay: percent liquid fraction of CF sputum. More on the design: species or system human. Conditions: for percent liquid fraction: 20 min (FIG. 3A); for liquefying sputum: concentrations below 1 mM; for 3 day range of percent of sputum in the liquid state: donor B; for range of percent liquid values: donor C. On the procedure: CF sputum stored at −80° C. was thawed at room temperature and aliquoted into 1.5 ml Eppendorf centrifuge tubes at volumes of 275 μl using a positive displacement pipette (Rainin, Emeryville, Calif.). Sputum samples were subjected to either diluent (H2O), Trx+TR+NADPH, GSH+glutathione reductase+NADPH, dithiothreitol (DTT) or N-acetylcysteine treatment by the addition of 25 μl of H2O containing the appropriate molar concentration of each agent. After brief vortexing (˜1 second), sample tubes were loaded onto a microtube rotisserie (Barnstead, Dubuque, Iowa) and incubated at 37° C. for 20 minutes. Samples were then processed for compaction assay according to methodology originated by Daugherty et al. (Daugherty et al., Biomaterials 16:553-558, 1995). To perform the assay, the contents of each sample were loaded into 100 μl glass micro-capillary tubes (Fisher Scientific) that had been previously welded to 200 μl pipette tips in order to achieve a tight fit. Three modified capillary tubes were used to draw up >90% of each sputum sample. Capillary tubes were then removed from their pipette tip, sealed with clay, and centrifuged for 10 minutes in a hematocrit centrifuge (IEC, Needham Heights, Mass.), followed by measurement of the length in millimeters of the gel (solid) and aqueous (liquid) phases in each tube. The percent liquid fraction of each capillary tube was calculated by dividing aqueous phase length by total length (gel+aqueous)×100. The three measurements of the liquid fraction (%) derived from each sample were then averaged to generate a single value for each treatment condition.
Due to abnormal ion transport caused by defects in the CFTR gene, airway secretions in CF patients are often desiccated. As a consequence, purulent CF sputum is comprised largely of a rigid and nonflowing biopolymer matrix, often referred to as gel phase, and lesser amounts of soluble, liquid phase. To assess the effect of Trx on the ratios of these two phases in sputum, compaction assay measurements were performed. […] After 20 minute incubation, the liquid fraction of each sample was determined by compaction assay.
To examine the effect of NADPH, additional samples from different donors were treated with 30 μM Trx, 0.1 μM TR and either 0, 0.2, 0.6, 1.0 or 2 mM NADPH for 20 minutes.
To assess the reproducibility of compaction assay measurements, sputum samples from three different CF donors were separated into aliquots and frozen. Specifically, freshly isolated CF sputum from three different donors (A, B, C) was separated into 275 μl aliquots and frozen. […] Results obtained from three independent experiments performed on each donor sample were used to evaluate assay reproducibility. On three consecutive days, aliquots were thawed, and treated with water, Trx and its reducing system, dithiothreitol (DTT), or no treatment.
The effectiveness of Trx in liquefying sputum was compared with other monothiol and dithiol reducing agents. Sputum samples were aliquoted and treated with Trx or GSH for 20 minutes and percent liquid determined by compaction assay. Initial compaction assay experiments compared the potencies of the Trx and GSH reducing systems in liquefaction of sputum in the presence of equimolar concentrations of NADPH. […] The analysis of Trx and NAC efficacy also was determined after 20 minute incubation, but on a different set of sputum samples.

For the molecule `NC(=O)C1=CN([C@@H]2O[C@H](COP(=O)(O)OP(=O)(O)OC[C@H]3O[C@@H](n4cnc5c(N)ncnc54)[C@H](OP(=O)(O)O)[C@@H]3O)[C@@H](O)[C@H]2O)C=CC1` [NADPH, β-Nicotinamide adenine dinucleotide phosphate, reduced form], where the note is “NADPH in the absence of Trx (not shown)”, the “increase in proportion of sputum present in the liquid fraction” value is recorded as “did not cause any increase”.

On to `N[C@@H](CCC(=O)N[C@@H](CS)C(=O)NCC(=O)O)C(=O)O` [GSH, glutathione], for which the liquefying sputum entry is given as “ineffective”. Also, for the setting “30 μM GSH + 0.1 μM Gr + 2 mM NADPH”, the percent liquid fraction was 7.8±5.7%. For the same molecule, the percent liquid fraction (100 μM GSH + 0.1 μM Gr + 2 mM NADPH) was found to be 15.9±9.3%. For the setting “1 mM GSH + 0.1 μM Gr + 2 mM NADPH”, the percent liquid fraction stood at 27.6±3.9%. For the same molecule, the “significance of increase in liquid fraction versus control” value (GSH at comparable or higher concentrations up to 1 mM) was “a significant increase in the liquid fraction of sputum was not observed”.

On to `O[C@H](CS)[C@H](O)CS` (racemic) [DTT, dithiothreitol], for which the “3 day range of percent of sputum in the liquid state” value is, setting by setting: (1 mM DTT) 24-31%; (5 mM DTT) 42-57%. The “range of percent liquid values” (1 mM DTT) was 57-61% and the “range of percent liquid values” (5 mM DTT) is 77-79%. Also, where the note is “equimolar basis (FIGS. 2 and 3; data not shown)”, the “sputum liquefying effectiveness compared with NAC” value is “more effective on an equimolar basis than NAC”.

In the case of `CC(=O)N[C@@H](CS)C(=O)O` [N-acetylcysteine], the liquefying sputum entry is reported as “ineffective”. Where the note is “range of concentrations, 20 min, 4 experiments (FIG. 3B)”, the “effectiveness in causing liquefaction of sputum compared with Trx” value was “less effective than Trx”.

Values taken from US9289471B2, “Product and process for liquefaction of mucus or sputum” (National Jewish Health, priority 2002, dated 2016).
